PubChem BioAssay (NCI)
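Briefly, cells in 96-well plates were exposed to five compound concentrations for 48 h, and endpoints were estimated by linear interpolation. At the TGI there is no net growth.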

Experiments:
Assay in all cases: NCI anticancer screen, dose series, 48 h
786-0 renal = test system: 786-0 renal
A498 renal = test system: A498 renal
A549 NSCLC = test system: A549 NSCLC
ACHN renal = test system: ACHN renal
BT-549 breast = test system: BT-549 breast
CAKI-1 renal = test system: CAKI-1 renal
CCRF-CEM leukemia = test system: CCRF-CEM leukemia
COLO 205 colon = test system: COLO 205 colon
DU-145 prostate = test system: DU-145 prostate
EKVX NSCLC = test system: EKVX NSCLC
HCC-2998 colon = test system: HCC-2998 colon
HCT-116 colon = test system: HCT-116 colon
HCT-15 colon = test system: HCT-15 colon
HL-60(TB) leukemia = test system: HL-60(TB) leukemia
HOP-62 NSCLC = test system: HOP-62 NSCLC
HS 578T breast = test system: HS 578T breast
HT29 colon = test system: HT29 colon
K-562 leukemia = test system: K-562 leukemia
KM12 colon = test system: KM12 colon
LOX IMVI melanoma = test system: LOX IMVI melanoma
M14 melanoma = test system: M14 melanoma
MALME-3M melanoma = test system: MALME-3M melanoma
MCF7 breast = test system: MCF7 breast
MDA-MB-231 breast = test system: MDA-MB-231 breast
MDA-MB-435 = test system: MDA-MB-435
MDA-N = test system: MDA-N
MOLT-4 leukemia = test system: MOLT-4 leukemia
NCI-H226 lung = test system: NCI-H226 lung
NCI-H23 lung = test system: NCI-H23 lung
NCI-H460 lung = test system: NCI-H460 lung
OVCAR-3 ovarian = test system: OVCAR-3 ovarian
OVCAR-4 ovarian = test system: OVCAR-4 ovarian
OVCAR-5 ovarian = test system: OVCAR-5 ovarian
OVCAR-8 ovarian = test system: OVCAR-8 ovarian
PC-3 prostate = test system: PC-3 prostate
RPMI-8226 leukemia = test system: RPMI-8226 leukemia
RXF 393 renal = test system: RXF 393 renal
SF-268 CNS = test system: SF-268 CNS
SF-295 CNS = test system: SF-295 CNS
SF-539 CNS = test system: SF-539 CNS
SK-MEL-2 melanoma = test system: SK-MEL-2 melanoma
SK-MEL-28 melanoma = test system: SK-MEL-28 melanoma
SK-MEL-5 melanoma = test system: SK-MEL-5 melanoma
SK-OV-3 ovarian = test system: SK-OV-3 ovarian
SN12C renal = test system: SN12C renal
SNB-19 CNS = test system: SNB-19 CNS
SNB-75 CNS = test system: SNB-75 CNS
SR leukemia = test system: SR leukemia
SW-620 colon = test system: SW-620 colon
T-47D breast = test system: T-47D breast
TK-10 renal = test system: TK-10 renal
U251 CNS = test system: U251 CNS
UACC-257 melanoma = test system: UACC-257 melanoma
UACC-62 melanoma = test system: UACC-62 melanoma
UO-31 renal = test system: UO-31 renal
IGROV1 ovarian = test system: IGROV1 ovarian
NCI-H522 lung = test system: NCI-H522 lung
NCI/ADR-RES ovarian = test system: NCI/ADR-RES ovarian

With CC(C)(C)OC[C@H](O)CC#N the TGI (786-0 renal) was over 100 µM, the TGI (A498 renal) was over 100 µM and the TGI (A549 NSCLC) was over 100 µM. For the same molecule, the TGI (ACHN renal) was over 100 µM, the TGI (BT-549 breast) was over 100 µM and the TGI (CAKI-1 renal) was over 100 µM. It also gave a TGI (CCRF-CEM leukemia) of over 100 µM, a TGI (COLO 205 colon) of over 100 µM and a TGI (DU-145 prostate) of over 100 µM. For the same molecule, the TGI (EKVX NSCLC) was over 100 µM, the TGI (HCC-2998 colon) was over 100 µM and the TGI (HCT-116 colon) was over 100 µM. The TGI (HCT-15 colon) was over 100 µM, the TGI (HL-60(TB) leukemia) was over 100 µM and the TGI (HOP-62 NSCLC) was over 100 µM. For the same molecule, the TGI (HS 578T breast) was over 100 µM, the TGI (HT29 colon) was over 100 µM and the TGI (K-562 leukemia) was over 100 µM. The TGI (KM12 colon) was over 100 µM, the TGI (LOX IMVI melanoma) was over 100 µM and the TGI (M14 melanoma) was over 100 µM. For the same molecule, the TGI (MALME-3M melanoma) was over 100 µM, the TGI (MCF7 breast) was over 100 µM and the TGI (MDA-MB-231 breast) was over 100 µM. The TGI (MDA-MB-435) was over 100 µM, the TGI (MDA-N) was over 100 µM and the TGI (MOLT-4 leukemia) was over 100 µM. For the same molecule, the TGI (NCI-H226 lung) was over 100 µM, the TGI (NCI-H23 lung) was over 100 µM and the TGI (NCI-H460 lung) was over 100 µM. For the same molecule, the TGI (OVCAR-3 ovarian) was over 100 µM, the TGI (OVCAR-4 ovarian) was over 100 µM and the TGI (OVCAR-5 ovarian) was over 100 µM. The TGI (OVCAR-8 ovarian) was over 100 µM, the TGI (PC-3 prostate) was over 100 µM and the TGI (RPMI-8226 leukemia) was over 100 µM. For the same molecule, the TGI (RXF 393 renal) was over 100 µM, the TGI (SF-268 CNS) was over 100 µM and the TGI (SF-295 CNS) was over 100 µM. For the same molecule, the TGI (SF-539 CNS) was over 100 µM, the TGI (SK-MEL-2 melanoma) was over 100 µM and the TGI (SK-MEL-28 melanoma) was over 100 µM. For the same molecule, the TGI (SK-MEL-5 melanoma) was over 100 µM, the TGI (SK-OV-3 ovarian) was over 100 µM and the TGI (SN12C renal) was over 100 µM. It also gave a TGI (SNB-19 CNS) of over 100 µM, a TGI (SNB-75 CNS) of over 100 µM and a TGI (SR leukemia) of over 100 µM. For the same molecule, the TGI (SW-620 colon) was over 100 µM, the TGI (T-47D breast) was over 100 µM and the TGI (TK-10 renal) was over 100 µM. For the same molecule, the TGI (U251 CNS) was over 100 µM, the TGI (UACC-257 melanoma) was over 100 µM and the TGI (UACC-62 melanoma) was over 100 µM. It also gave a TGI (UO-31 renal) of over 100 µM.
Molecule CN(Cc1cnc2nc(N)nc(N)c2n1)c1ccc(C(=O)NC(CCC(=O)NCC(P(=O)(O)O)P(=O)(O)O)C(=O)O)cc1 (configuration not stated) has a TGI (786-0 renal) of over 100 µM, a TGI (A549 NSCLC) of over 100 µM and a TGI (ACHN renal) of over 100 µM. It also gave a TGI (COLO 205 colon) of over 100 µM, a TGI (DU-145 prostate) of over 100 µM and a TGI (EKVX NSCLC) of over 100 µM. For the same molecule, the TGI (HCT-116 colon) was over 100 µM, the TGI (HCT-15 colon) was over 100 µM and the TGI (HOP-62 NSCLC) was 68 µM. It also gave a TGI (HS 578T breast) of over 100 µM, a TGI (HT29 colon) of over 100 µM and a TGI (IGROV1 ovarian) of over 100 µM. The TGI (LOX IMVI melanoma) was over 100 µM, the TGI (M14 melanoma) was over 100 µM and the TGI (MALME-3M melanoma) was over 100 µM. It also gave a TGI (MDA-MB-231 breast) of over 100 µM, a TGI (MDA-N) of over 100 µM and a TGI (MOLT-4 leukemia) of over 100 µM. It also gave a TGI (NCI-H460 lung) of over 100 µM, a TGI (NCI-H522 lung) of over 100 µM and a TGI (NCI/ADR-RES ovarian) of over 100 µM. The TGI (OVCAR-3 ovarian) was over 100 µM, the TGI (OVCAR-4 ovarian) was over 100 µM and the TGI (OVCAR-8 ovarian) was over 100 µM. The TGI (PC-3 prostate) was over 100 µM, the TGI (SF-268 CNS) was over 100 µM and the TGI (SF-295 CNS) was over 100 µM. It also gave a TGI (SK-MEL-2 melanoma) of over 100 µM, a TGI (SK-MEL-5 melanoma) of over 100 µM and a TGI (SK-OV-3 ovarian) of over 100 µM. For the same molecule, the TGI (SN12C renal) was over 100 µM, the TGI (SNB-75 CNS) was over 100 µM and the TGI (SR leukemia) was over 100 µM. The TGI (SW-620 colon) was over 100 µM, the TGI (T-47D breast) was over 100 µM and the TGI (UACC-257 melanoma) was over 100 µM. It also gave a TGI (UACC-62 melanoma) of over 100 µM.
